Results published in patent US10166271B2, “Methods for promoting hair growth” (THE REGENTS OF THE UNIVERSITY OF CALIFORNIA, priority 2006, dated 2019).
Several values for one entry are separate records, joined by “and”; a condition that tells them apart may be missing. Identical values can stand only once.

Key:
CRF-OE mice = experiment: Hair growth and skin pigmentation after ip injection in adult alopecic CRF-OE mice (Example 2); format: in vivo; design: key to Back Hair Growth Score (BK) / Ventral Abdomen Hair Growth Score (VAb): hair growth score 0-10: 0 = no change in hair, 10 = full hair growth; key to Skin pigmentation (Pg) score: pigment score 0-10: 0 = bright pink skin, 10 = fully black; conditions: for Back Hair Growth Score (BK) / Skin pigmentation (Pg) score / Ventral Abdomen Hair Growth Score (VAb): adult male CRF-OE mice, individual mice and Ave.
Experimental: Hair growth in CRF-OE mice was assessed using the hair growth scale developed by Vegesna et al. […], 2002) modified to account for phenotypic differences between CRF-OE mice. Scores were made visually as well as using photographs of each mouse at a weekly interval. The degree of alopecia varied between individual CRF-OE mice; thus, the percent difference between the amount of hair present in the test area (described below) before and 4 weeks after treatment was converted to a score of 0-10. A zero score corresponded to a no change in the amount of hair in the test area and a score of 10 corresponded to full hair growth in the entire test area. The scale for monitoring hair growth in CRF-OE mice is more particularly described in Table 2.
Pigmentation of the skin (also referred to as skin color) in the test region was also measured because, in C57BL/6 mice, the skin darkens at the onset of hair growth. A pigmentation score from 0-10 was given to each mouse with a score of 0 corresponding to bright pink skin color/pigment in the entire test region, a score of 1-5 corresponding to increasing intensity of a pale greyish color/pigment of skin in the test region, a score of 6-9 corresponding to increasing but non-confluent darker color/pigment of skin in the test region, and a score of 10 corresponding to black pigmentation of the entire test region. Pigmentation was measured one week after the fifth and final injection because changes (if any) in pigmentation are substantially complete by that time.
CRF-OE mice (approximately 4 months old) with fully developed alopecia on their backs were injected intraperitoneally (ip) with equal volumes (0.1 ml) of either saline or astressin B (5 μg/mouse/day) for 5 consecutive days. Skin pigment score and hair growth (on the back) score were determined as described in Example 1. In addition, because adult CRF-OE mice also lose ventral abdomen hair, a ventral abdomen (Vab) hair growth score was determined. The area considered for scoring ventral abdomen hair growth was delineated, in the front (anteriorly), by a horizontal line across the tip of the xifoid process (distal sternum), in the rear (posteriorly), by a horizontal line joining the back of the thighs along the anus, and, laterally, by a straight line along the lateral side of the ventral abdomen on left and right sides.

young CRF-OE mice = experiment: Cyclic CRF antagonists, prevention of hair loss in young CRF-OE mice (Example 11); format: in vivo; conditions: at least four weeks after the final administration
From the text: Although mice are particularly described, one skilled in the art will appreciate that other laboratory animals and human subjects can be used, and doses adjusted accordingly (for example based on the weight of the subject, or the area to which the peptide is to be applied). Similarly, although particular modes of administration are described, one will appreciate that variations can be made (such as those disclosed herein and those known in the art).
Any method of administration can be used, including injection, transdermal/topical delivery, or combinations thereof.
In one example, therapeutic peptides are administered via injection. For example, mice can be injected subcutaneously or intraperitoneally with at least 0.05 μg, at least 0.5 μg, at least 5 μg, at least 50 μg, or at least 500 μg of one or more therapeutic peptides (for example 0.5-50 μg peptide, 0.5-10 μg peptide, or 5 μg peptide). The peptide can be administered in 0.1 ml sterile saline (or 5% mannitol) once per day for at least 5 consecutive days, such as at least 10 days, at least 30 days, or at least 60 days. […] As a negative control, CRF-OE mice receive saline alone (such as 10-100 μl) or 5 μg astressin 2B in 0.1 ml saline.
In another example, therapeutic peptides are administered topically or transdermally. […]

[1] = ip 5 μg/mouse/day x 5 days, CRF-OE mice
[2] = ip 5 μg/mouse/day x 5 days, Before (Week 0), listed as AB
[3] = ip 5 μg/mouse/day x 5 days, Before (Week 0), listed as AB, mean
[4] = ip 5 μg/mouse/day x 5 days, Week 1, listed as AB
[5] = ip 5 μg/mouse/day x 5 days, Week 1, listed as AB, mean
[6] = ip 5 μg/mouse/day x 5 days, Week 8, listed as AB
[7] = ip 5 μg/mouse/day x 5 days, Week 8, listed as AB, mean

“(cyclo 30-33)[DPhe12, Nle21,38, Cml27,40, Glu30, Lys33]Ac-h/rCRF9-41 [Astressin B]” was tested, and the “Onset of dark skin pigment after the final injection” value (CRF-OE mice; [1]) was ≤ 3 days, the “Time of darkest skin color / maximal pigment response after the final injection” value (CRF-OE mice; [1]) was 7 to 10 days and the “Re-grown hair maintained / retained after the final ip injection” value (CRF-OE mice; ip 5 μg/mouse/day x 5 days, CRF-OE mice, listed as astressin B) was ≥ 8 weeks. The “Re-grown hair maintained / retained after the final ip injection” value (CRF-OE mice; ip 5 μg/mouse/day x 5 days, CRF-OE mice, listed as astressin-B) was 8 weeks, the “Back Hair Growth Score (BK)” value (CRF-OE mice; [2]) was 2 and 1 (3×) and the “Skin pigmentation (Pg) score” value (CRF-OE mice; [2]) was 0.0. For the same substance, the “Ventral Abdomen Hair Growth Score (VAb)” value (CRF-OE mice; [2]) was 5 (3×) and 2.5, the “Back Hair Growth Score (BK)” value (CRF-OE mice; [3]) was 1.25 and the “Skin pigmentation (Pg) score” value (CRF-OE mice; [3]) was 0. The “Ventral Abdomen Hair Growth Score (VAb)” value (CRF-OE mice; [3]) was 4.4, the “Skin pigmentation (Pg) score” value (CRF-OE mice; ip 5 μg/mouse/day x 5 days, Week 1) was 10 and the “Back Hair Growth Score (BK)” value (CRF-OE mice; [4]) was 9.5 and 10 and 9 (2×). The “Ventral Abdomen Hair Growth Score (VAb)” value (CRF-OE mice; [4]) was 10 (2×) and 8 (2×), the “Back Hair Growth Score (BK)” value (CRF-OE mice; [5]) was 9.4 and the “Ventral Abdomen Hair Growth Score (VAb)” value (CRF-OE mice; [5]) was 9. The “Ventral Abdomen Hair Growth Score (VAb)” value (CRF-OE mice; ip 5 μg/mouse/day x 5 days, Week 4) was 10, the “Back Hair Growth Score (BK)” value (CRF-OE mice; ip 5 μg/mouse/day x 5 days, Week 4, listed as AB) was 10 (3×) and 9.5 and the “Back Hair Growth Score (BK)” value (CRF-OE mice; ip 5 μg/mouse/day x 5 days, Week 4, listed as AB, mean) was 9.9. For the same substance, the “Ventral Abdomen Hair Growth Score (VAb)” value (CRF-OE mice; ip 5 μg/mouse/day x 5 days, Week 4, mean) was 10, the “Back Hair Growth Score (BK)” value (CRF-OE mice; [6]) was 10 and 9.5 and 8.5 and 8 and the “Ventral Abdomen Hair Growth Score (VAb)” value (CRF-OE mice; [6]) was 10 (2×) and 8 (2×). The “Back Hair Growth Score (BK)” value (CRF-OE mice; [7]) was 9, the “Ventral Abdomen Hair Growth Score (VAb)” value (CRF-OE mice; [7]) was 9 and the Hair coverage (CRF-OE mice; ip 5 μg/mouse/day x 5 days, at 2 weeks, four-month old male CRF-OE mice) was 95-100%. The “Re-grown hair largely maintained after the last ip injection” value (CRF-OE mice; ip 5 μg/mouse/day x 5 days, four-month old male CRF-OE mice) was “up to 16 weeks”, the “Hair growth score (fully grown hair)” value (CRF-OE mice; ip, four and seven weeks after the final injection, all mice) was 9-10 and the “Mice with dark skin” value (CRF-OE mice; ip, one week after the final injection, fraction of mice) was 4/4.
For “cyclo(31-34)[DPhe11, His12, CαMeLeu13,39, Nle17, Glu31, Lys34]Ac-Sau(8-40) [Astressin 2B, reference compound]”, the “Hair in the test area” value (young CRF-OE mice) was “ultimately develop alopecia in the test area”.
